Data reported in US6531512B1, “Method of treating cancer in patients having a deficiency in p53 tumor suppressor gene” (Health Research Inc., priority 1998, dated 2003).

Key:
Format in all cases: cell-based, human
[1] = tested on: spermidine/spermine N^1-acetyltransferase (SSAT); test: Polyamine enzyme activity in treated melanoma cells: SSAT induction; settings: SK-MEL-28 cells, 24 hours
Method: (§1) MALME-3M human melanoma cells were cultured as described in Example 1 and treated with 10 μM DENSPM or 10 μM spermine (SPM) as described in Example 4. SK-MEL-28 cells were also cultured as described in Example 1 and treated with 10 μM DENSPM as describe in Example 4. Untreated cells were used as a control.
(§2) After treatment with DENSPM or spermine, biochemical parameters including polyamine enzymes activity, polyamine pools and analog accumulation were monitored as described by Kramer et al, J. Biol. Chem., 270:2124-32 (1995) and Kramer et al., Cancer Res., 57:5521-5527 (1997). Polyamine enzyme activity was monitored for ornithine […] (ODC); S-adenosylmethionine decarboxylase (SAMDC); and spermidine/spermine N^1-acetyltransferase (SSAT). Polyamine pools was monitored for putrescine (Put); spermidine (Spd); and spermine (Spm).
Enzyme activity and polyamine pools were measured as described in Example 5.

[2] = tested on: cell cycle regulatory proteins, including p53, p21, p27, ppRb, pRb, cyclin D1 and PCNA; test: Western blot of cell cycle regulatory proteins in MALME-3M cells; settings: 10 μM
Method: (§3) MALME-3M and SK-MEL-28 cells cultured as described in Example 4 were treated with 10 μM DENSPM for 0 to 48 hours. Western blot analysis of cell cycle regulatory proteins, including p53, p21, p27, ppRb, pRb, cyclin D1 and PCNA was performed following the procedure described by Fogel-Petrovic et al. in Molec. Pharm, 52:69-74 (1997); and Biochemistry, 35:14436-14444 (1996). Antibodies used for detecting the proteins were obtained commercially as follows: p53 from Santa Cruz Biotechnology, Inc. (Santa Cruz, Calif.); PCNA and Cyclin D1 from Oncogene Research Products (Cambridge, Mass.); Rb and p21 from PharMigen (San Diego, Calif.); p27 from Transduction labs (Lexington, Ky.) and β-actin (used to correct for variations in loading) from Sigma Chemical Co. (St. Louis, Mo.). Western blot analysis of each of these proteins was performed at least three times.

[3] = tested on: SK-MEL-28 cells; test: Apoptosis by proton NMR of membrane lipids (methylene/methyl ratio); settings: 10 μM
Method: Apoptosis of MALME-3M and SK-MEL-28 cells due to treatment with 10 μM DENSPM was quantified using proton nuclear magnetic resonance (NMR) spectroscopy. NMR was used to detect membrane phospholipid spectral intensity changes which correlate with surface expression of phosphatidylserine, an early marker of apoptosis. Changes in methylene and methyl peaks were detected by the […] described by Blankenberg et al., Blood, 89:3778-3786 (1997).
Intensity changes in membrane lipids was measured using NMR after 72 hours of continuous treatment with 10 μM DENSPM. […] The SK-MEL-28 cells undergo a rapid spectral ratio change which correlates with the massive cell loss seen in FIG. 4. Maximal cell death occurred by 48 hours in SK-MEL-28 cells. The data represent the mean ratio±standard deviation.
For perspective, a methylene to methyl spectral ratio of about 1 is typical of untreated cells while a ratio of about 3 is the maximum attainable with most apoptotic responses. Thus, the ratio of 2.6 observed with DENSPM-treated SK-MEL-28 cells at 48 hours represents a full scale response.

[4] = tested on: S-adenosylmethionine decarboxylase (SAMDC); test: Polyamine enzyme activity in treated melanoma cells: SAMDC; settings: 10 μM
Method: as §1, §2

[5] = tested on: cell cycle regulatory proteins (p53, p21, p16, p27); test: Western blot of cell cycle regulatory proteins in SK-MEL-28 cells; settings: SK-MEL-28, 10 μM
Method: as §3
The effects of 10 μM DENSPM on MALME-3M and SK-MEL-28 cell growth and cell cycle regulatory proteins were determined as described in Examples 2 and 3, respectively. Panel A is a comparison of the effects of DENSPM on cell growth. Panel B is a comparison of cell cycle regulatory proteins. […] In contrast, p16 was not detectable in MALME-3M cells. Data is representative of at least two experiments.

## CCNCCCNCCCNCCCNCC [DENSPM, N^1,N^11-diethylnorspermine]
[1]
  SSAT activity: 31,920 pmol/min/mg
[1]; Table 4
  Enzyme Activities, SSAT: 31920 pmol/min/mg protein
[2]
  appearance of the hypophosphorylated Rb (pRb) protein band: about 16 hours
  start of increase in p21: about 12 hours
  start of increase in wild type p53: about 12 hours
  time of p21 maximum: 30 h
  time of p53 maximum: 30 h
[2]; 0 to 48 hours
  protein levels of PCNA: unaffected
[2]; 30 hour peak
  p21 protein increase relative to zero treatment time (densitometry, normalized to β-actin): 5 fold
  p53 protein increase relative to zero treatment time (densitometry, normalized to β-actin): 10 fold
[2]; 48 hour time course (data not shown)
  levels of p130, cyclin D1 and cyclin E: relatively constant
[2]; 48 hours
  Rb phosphorylation state by 48 hours: pRb was the only species
[2]; at 24 to 30 hours
  p27 maximum induction: about 1.5 fold
[3]
  time of maximal cell death: ≤ 48 h
[3]; 48 hours
  methylene to methyl spectral ratio: 2.6
[4]; MALME-3M (wt-p53), Table 2 (24 hours treatment)
  SAMDC activity: 40 pmol/hr/mg protein
[4]; SK-MEL-28 (mt-p53), Table 2, 24 hours
  SAMDC activity: 25 pmol/hr/mg protein
[5]
  cdk inhibitors p16 and p27: not increased
  p21 protein induction with treatment: not induced
[5]; 24 hours
  induction of p53: no induction
